Measured values taken from patent US20230257367A1, “NOVEL THYROID HORMONE BETA RECEPTOR AGONIST” (Chengdu Kanghong Pharmaceutical Co., Ltd., priority 2020, published 2023).

Columns and labels:
TRα-LBD/RXRα = target: T1, TRα-LBD/RXRα (Homo sapiens, UniProt P10827); test: In vitro binding experiment (TR-FRET SRC2-2 co-activator peptide recruitment), TRα; assay type: biochemical; details: 4 h incubation at room temperature
T1 construct: TRα-LBD (Invitrogen, PV4762), or TRβ-LBD (Invitrogen, PV4764) with a GST tag were used; purchased Invitrogen (TRα-LBD); Pharmaron (RXRα) PV4762

TRα = target: T2, TRα (Homo sapiens, UniProt P10827); test: In vitro TRα cell transfection experiment (GAL4 luciferase reporter, HEK293T); assay type: cell-based
T2 construct: host or cells: HEK293T
T2 sequence (P10827 1-410 isoform P10827-2): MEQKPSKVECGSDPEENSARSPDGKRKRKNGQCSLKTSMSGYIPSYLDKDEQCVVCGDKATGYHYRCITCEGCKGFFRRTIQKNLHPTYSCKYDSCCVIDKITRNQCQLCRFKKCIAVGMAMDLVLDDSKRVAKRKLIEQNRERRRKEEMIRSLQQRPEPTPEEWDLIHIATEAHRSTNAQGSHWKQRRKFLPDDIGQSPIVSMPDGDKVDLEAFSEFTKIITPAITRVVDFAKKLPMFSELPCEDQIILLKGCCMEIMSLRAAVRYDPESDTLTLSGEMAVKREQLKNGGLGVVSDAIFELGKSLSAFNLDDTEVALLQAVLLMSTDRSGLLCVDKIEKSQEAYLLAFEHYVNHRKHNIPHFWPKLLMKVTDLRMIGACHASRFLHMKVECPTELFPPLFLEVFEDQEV
T2 sequence (P19793 227-458 partner limits assumed): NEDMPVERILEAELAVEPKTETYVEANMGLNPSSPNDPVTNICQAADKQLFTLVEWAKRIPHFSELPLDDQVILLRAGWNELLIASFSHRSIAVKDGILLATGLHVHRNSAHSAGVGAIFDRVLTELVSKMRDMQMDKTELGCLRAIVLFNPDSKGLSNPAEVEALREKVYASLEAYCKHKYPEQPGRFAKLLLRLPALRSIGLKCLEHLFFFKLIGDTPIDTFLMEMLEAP

TRβ = target: T3, TRβ (Homo sapiens, UniProt P10828); test: In vitro TRβ cell transfection experiment (GAL4 luciferase reporter, HEK293T); assay type: cell-based
T3 construct: host or cells: HEK293T
T3 sequence (P10828 217-461 limits assumed): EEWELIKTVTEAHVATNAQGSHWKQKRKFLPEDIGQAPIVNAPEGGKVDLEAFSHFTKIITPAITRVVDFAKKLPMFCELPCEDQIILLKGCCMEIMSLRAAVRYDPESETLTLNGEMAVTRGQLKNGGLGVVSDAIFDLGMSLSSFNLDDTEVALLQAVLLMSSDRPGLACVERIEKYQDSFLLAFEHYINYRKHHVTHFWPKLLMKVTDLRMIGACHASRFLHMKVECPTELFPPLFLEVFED
T3 sequence (P19793 227-458 partner limits assumed): T2 sequence (P19793 227-458 partner limits assumed)

NASH model = test: In vivo pharmacological experiment: DIO + CCl4 induced NASH model; set-up: species or system C57BL/6J male mice; details: oral, once per day
Experimental: In the early stages of this experiment, mice induced by DIO (diet-induced obesity) were fed with a high-fat diet, followed by intraperitoneal injection of CCl4 during high-fat diet feeding to induce the NASH model. In this model, the anti-NASH efficacy of the compound to be tested was evaluated Animal information: C57BL/6J male mice (18 weeks old) were used, comprising 32 DIO mice+8 normal mice, wherein the weight of DIO mice >38 g. [table] [table] Induction with CCl4: A 25% (volume ratio) of CCl4 solution was prepared by placing 1 part CCl4 and 3 parts olive oil in a glass bottle. The solution was mixed well and used right after it was ready Eight mice in the first group were intraperitoneally injected with normal saline solution as normal controls The mice in the 2rd to 5th groups were intraperitoneally injected with 25% CCl4 solution twice a week. 25% (volume ratio) CCl4 was administered by body weight, 0.5 ml/kg. The interval between the injection time of CCl4 and the time of administration on the day should be more than 4 hours Histopathological Analysis All liver samples were dehydrated by a dehydrating instrument (Leica HistoCore Pearl-0348) and then embedded by a paraffin embedding machine (HistoCoreArcadia). The embedded liver sample was then sliced using a Lecia RM2235 machine. NAS Score NAS scores were performed on HE (hematoxylin-eosin) stained slices as the sum of steatosis, balloon degeneration, and lobular inflammation. [table] […] Percentage of Fibrosis All slices stained with Sirius red were scanned by a Leica Aperio AT2 Brightfield scanner, and then a percentage of Sirius red positive staining area was calculated by the HALO AI system to evaluate the percentage area of the Sirius red in the total liver area scanned.

TRβ-LBD/RXRα = target: T4, TRβ-LBD/RXRα (Homo sapiens, UniProt P10828); test: In vitro binding experiment (TR-FRET SRC2-2 co-activator peptide recruitment), TRβ; assay type: biochemical; details: 4 h incubation at room temperature
T4 construct: TRβ-LBD (Invitrogen, PV4764) with a GST tag were used; purchased Invitrogen (TRβ-LBD); Pharmaron (RXRα) PV4764
T4 sequence (P19793 whole entry partner, other chains not shown, the tested form may be a part): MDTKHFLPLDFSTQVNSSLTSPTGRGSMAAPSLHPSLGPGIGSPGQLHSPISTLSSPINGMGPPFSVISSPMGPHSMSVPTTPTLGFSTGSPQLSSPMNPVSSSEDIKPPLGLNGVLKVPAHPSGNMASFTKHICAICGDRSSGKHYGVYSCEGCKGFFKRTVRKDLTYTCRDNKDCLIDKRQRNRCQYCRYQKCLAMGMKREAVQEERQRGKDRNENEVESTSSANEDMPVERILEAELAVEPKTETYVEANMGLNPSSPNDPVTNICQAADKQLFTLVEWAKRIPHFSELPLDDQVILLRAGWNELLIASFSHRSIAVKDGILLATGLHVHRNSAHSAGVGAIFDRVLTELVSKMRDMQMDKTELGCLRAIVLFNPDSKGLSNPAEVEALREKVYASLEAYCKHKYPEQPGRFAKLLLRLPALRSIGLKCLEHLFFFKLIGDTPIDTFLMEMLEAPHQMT

T1 sequence (P19793 whole entry partner, other chains not shown, the tested form may be a part): as above

EC50 (TRα-LBD/RXRα): 0.094 µM | EC50 (TRα): 0.037 µM | EC50 (TRβ): 0.009 µM | EC50 (TRβ-LBD/RXRα): 0.007 µM
Structure (SMILES): CC(C)c1nc(Oc2c(Cl)cc(-n3ncc(=O)[nH]c3=O)cc2Cl)ncc1O [KH06]
NAS score (sum of steatosis, ballooning degeneration and lobular inflammation) (NASH model; 1 and 3 mg/kg, compared with the model group, FIG. 2): significant reduction in score | fibrosis evaluation (percentage of Sirius red positive area) (NASH model; 1 and 3 mg/kg, day 0 to day 27, FIG. 1): reducing the proportion of fibrosis | fibrosis efficacy compared with MGL3196 at 3 mg/kg (NASH model; KH06 1 mg/kg, FIG. 1): better than that of MGL3196 at a dosage of 3 mg/kg | NAS score efficacy compared with MGL3196 at 3 mg/kg (NASH model; KH06 1 mg/kg, FIG. 2): same efficacy as MGL3196 at 3 mg/kg
